The text below walks through data of patent US20120238549A1, “Nuclear Hormone Receptor Modulators” (ABBOTT LABORATORIES, priority 2011, published 2012).

The assay concerns the target T1, Glucocorticoid Receptor (GR) (Homo sapiens, UniProt P04150).
T1 construct: purchased Invitrogen P2893
T1 sequence (P04150 1-777): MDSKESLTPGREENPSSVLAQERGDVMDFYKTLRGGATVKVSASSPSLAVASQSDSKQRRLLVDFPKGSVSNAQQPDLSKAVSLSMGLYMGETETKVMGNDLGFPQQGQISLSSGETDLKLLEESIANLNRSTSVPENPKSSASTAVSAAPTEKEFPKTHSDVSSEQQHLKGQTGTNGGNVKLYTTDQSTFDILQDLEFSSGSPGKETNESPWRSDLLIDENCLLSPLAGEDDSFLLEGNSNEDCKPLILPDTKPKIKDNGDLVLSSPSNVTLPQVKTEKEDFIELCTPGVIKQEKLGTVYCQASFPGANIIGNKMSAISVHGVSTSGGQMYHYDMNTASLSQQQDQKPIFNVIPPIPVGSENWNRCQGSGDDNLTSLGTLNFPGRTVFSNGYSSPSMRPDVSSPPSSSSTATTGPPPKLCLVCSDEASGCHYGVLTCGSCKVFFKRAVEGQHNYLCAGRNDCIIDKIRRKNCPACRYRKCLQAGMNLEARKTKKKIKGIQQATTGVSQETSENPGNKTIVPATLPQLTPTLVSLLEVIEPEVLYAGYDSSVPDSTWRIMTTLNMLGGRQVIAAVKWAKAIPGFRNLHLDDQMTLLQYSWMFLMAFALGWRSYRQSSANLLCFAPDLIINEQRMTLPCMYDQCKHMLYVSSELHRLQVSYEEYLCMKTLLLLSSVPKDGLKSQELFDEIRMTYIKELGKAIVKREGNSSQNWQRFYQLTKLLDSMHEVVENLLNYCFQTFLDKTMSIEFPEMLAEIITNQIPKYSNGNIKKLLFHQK
The assay can be described thus: GR Florescence Polarization Assay (PolarScreen Glucocorticoid Receptor Competitor Assay, Red). As to conditions: Fluorescense polarization binding ranges; competition with fluorescent glucocorticoid, incubated overnight at 4° C. An outline of the steps: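 Competitive fluorescence polarization using fluorescent glucocorticoid tracer and human GR in kit buffer. Compounds serially diluted 1:4 in DMSO, incubated with tracer and GR overnight at 4 °C before polarization read.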
The compound `CCC[C@@]1(O)CC[C@@]2(CC)c3ccc(C(=O)Nc4cccnc4C)cc3COC[C@H]2C1` (racemic) [Example 136, (7aS,9R,11aR)-11a-Ethyl-9-propyl-9-hydroxy-N-(2-methylpyridin-3-yl)-5,7,7a,8,9,10,11,11a-octahydrodibenzo[c,e]oxepine-3-carboxamide; compound with (7aR,9S,11aS)-11a-ethyl-9-propyl-9-hydroxy-N-(2-methylpyridin-3-yl)-5,7,7a,8,9,10,11,11a-octahydrodibenzo[c,e]oxepine-3-carboxamide] gave an IC50 of under 100 nM.
With `CCC[C@@]12CC[C@@](O)(CC)C[C@@H]1CCCc1cc(C(=O)Nc3cccnc3C)ccc12.CCC[C@]12CC[C@](O)(CC)C[C@H]1CCCc1cc(C(=O)Nc3cccnc3C)ccc12` [Example 27, (7aR,9R,11aS)-9-ethyl-9-hydroxy-11a-propyl-6,7,7a,8,9,10,11,11a-octahydro-5H-dibenzo[a,c]cycloheptene-3-carboxylic acid (2-methyl-pyridin-3-yl)-amide; compound with (7aS,9S,11aR)-9-ethyl-9-hydroxy-11a-propyl-6,7,7a,8,9,10,11,11a-octahydro-5H-dibenzo[a,c]cycloheptene-3-carboxylic acid (2-methyl-pyridin-3-yl)-amide], the IC50 is 1000 to 10000 nM.
Consider `CC[C@@]12CC[C@@](C)(O)C[C@@H]1CCCc1cc(C(=O)Nc3cccnc3C)ccc12` (single isomer, unassigned) [Example 60], for which the IC50 was under 100 nM.
Take `CC[C@@]1(O)CC[C@@]2(Cc3ccccc3)c3ccc(C(=O)Nc4ccc(-c5ccn[nH]5)nc4C)cc3CCC[C@H]2C1` [Example 86, (7aS,9R,11aS)-11a-Benzyl-9-ethyl-9-hydroxy-6,7,7a,8,9,10,11,11a-octahydro-5H-dibenzo[a,c]cycloheptene-3-carboxylic acid [2-methyl-6-(2H-pyrazol-3-yl)-pyridin-3-yl]-amide]: the IC50 was under 100 nM.
In turn, `O=C1CC[C@@]2(Cc3ccccc3)c3ccc(O)cc3CCC[C@H]2C1.O=C1CC[C@]2(Cc3ccccc3)c3ccc(O)cc3CCC[C@@H]2C1` [Example 4, (4aS,11bS)-11b-Benzyl-9-hydroxy-1,2,4,4a,5,6,7,11b-octahydro-dibenzo[a,c]cyclohepten-3-one; compound with (4aR,11bR)-11b-benzyl-9-hydroxy-1,2,4,4a,5,6,7,11b-octahydro-dibenzo[a,c]cyclohepten-3-one] had an IC50 of 100 to 1000 nM.
Consider `CC[C@@]1(O)CC[C@@]2(Cc3ccccc3)c3ccc(C(=O)Nc4cccnc4C)cc3CCC[C@H]2C1` (single isomer, unassigned) [Example 14], for which the IC50 was under 100 nM.
Take `Cc1ncccc1NC(=O)c1ccc2c(c1)CCC[C@H]1CC(C)(O)CC[C@]21Cc1ccccc1` (stereo in doubt) [Example 91, (7aS,9R,11aR)-11a-benzyl-9-hydroxy-9-methyl-6,7,7a,8,9,10,11,11a-octahydro-5H-dibenzo[a,c]cycloheptene-3-carboxylic acid (2-methyl-pyridin-3-yl)-amide]: the IC50 was in the range of 100 to 1000 nM.
In the case of `CC[C@@]1(O)CC[C@@]2(Cc3ccccc3)c3ccc(C(=O)NCc4cccnc4C)cc3CCC[C@H]2C1` [Example 83, (7aS,9R,11aS)-11a-Benzyl-9-ethyl-9-hydroxy-6,7,7a,8,9,10,11,11a-octahydro-5H-dibenzo[a,c]cycloheptene-3-carboxylic acid (2-methyl-pyridin-3-ylmethyl)-amide], the IC50 is under 100 nM.
For `CC[C@@]1(O)CC[C@@]2(Cc3ccccc3)c3ccc(C(=O)Nc4cccnc4C)cc3CC(=O)C[C@H]2C1` [Example 114, (7aR,9R,11aS)-11a-Benzyl-9-ethyl-9-hydroxy-6-oxo-6,7,7a,8,9,10,11,11a-octahydro-5H-dibenzo[a,c]cycloheptene-3-carboxylic acid (2-methyl-pyridin-3-yl)-amide], the IC50 was under 100 nM.
Compound `CC[C@@]1(O)CC[C@@]2(Cc3ccccc3)c3ccc(C(=O)Nc4ccnn4C)cc3CCC[C@H]2C1` [Example 75] returned an IC50 of under 100 nM.
In turn, `CC[C@@]1(O)CC[C@@]2(Cc3ccccc3)c3ccc(C(=O)Nc4ccc(N)cc4)cc3CCC[C@H]2C1` [Example 143, (7aS,9R,11aS)-11a-Benzyl-9-ethyl-9-hydroxy-6,7,7a,8,9,10,11,11a-octahydro-5H-dibenzo[a,c]cycloheptene-3-carboxylic acid (4-amino-phenyl)-amide] had an IC50 of under 100 nM.
Turning to `Cc1ncccc1NC(=O)c1ccc2c(c1)CCC[C@H]1C[C@](C)(O)CC[C@@]21Cc1ccccc1` (racemic) [Example 30, (7aS,9R,11aS)-11a-Benzyl-9-hydroxy-9-methyl-6,7,7a,8,9,10,11,11a-octahydro-5H-dibenzo[a,c]cycloheptene-3-carboxylic acid (2-methyl-pyridin-3-yl)-amide; compound with (7aR,9S,11aR)-11a-benzyl-9-hydroxy-9-methyl-6,7,7a,8,9,10,11,11a-octahydro-5H-dibenzo[a,c]cycloheptene-3-carboxylic acid (2-methyl-pyridin-3-yl)-amide], the IC50 is under 100 nM.
Take `Cc1ncccc1NC(=O)c1ccc2c(c1)CCC[C@H]1C[C@@](O)(CC(C)C)CC[C@@]21CC(F)(F)F` (racemic) [Example 63, (7aS,9S,11aS)-9-Hydroxy-9-isobutyl-11a-(2,2,2-trifluoro-ethyl)-6,7,7a,8,9,10,11,11a-octahydro-5H-dibenzo[a,c]cycloheptene-3-carboxylic acid (2-methyl-pyridin-3-yl)-amide; compound with (7aR,9R,11aR)-9-hydroxy-9-isobutyl-11a-(2,2,2-trifluoro-ethyl)-6,7,7a,8,9,10,11,11a-octahydro-5H-dibenzo[a,c]cycloheptene-3-carboxylic acid (2-methyl-pyridin-3-yl)-amide]: the IC50 was under 100 nM.
`O=C1CC[C@@]2(Cc3ccccc3)C(=O)CCCC[C@H]2C1.O=C1CC[C@]2(Cc3ccccc3)C(=O)CCCC[C@@H]2C1` [Example 36, (4aS,9aS)-4a-Benzyl-octahydro-benzocycloheptene-2,5-dione; compound with (4aR,9aR)-4a-benzyl-octahydro-benzocycloheptene-2,5-dione] showed an IC50 of over 10000 nM.
For the compound `CC[C@@]12C[C@@H](O)[C@](O)(c3ccccc3)C[C@@H]1CCOc1cc(C(=O)Nc3cccnc3C)ccc12` (racemic) [Example 135, (7aS,9R,10R,11aR)-11a-Ethyl-9,10-dihydroxy-N-(2-methylpyridin-3-yl)-9-phenyl-6,7,7a,8,9,10,11,11a-octahydrodibenzo[b,d]oxepine-3-carboxamide; compound with (7aR,9S,10S,11aS)-11a-ethyl-9,10-dihydroxy-N-(2-methylpyridin-3-yl)-9-phenyl-6,7,7a,8,9,10,11,11a-octahydrodibenzo[b,d]oxepine-3-carboxamide], the IC50 is 100 to 1000 nM.
Then `CC[C@@]1(O)CC[C@@]2(Cc3ccccc3)c3ccc(C(=O)Nc4cccnc4C)cc3C(=O)CC[C@H]2C1` (single isomer, unassigned) [Example 24], with under 100 nM; and `CC[C@@]1(O)CC[C@@]2(Cc3ccccc3)c3ccc(C(=O)NCCN4CCOCC4)cc3CCC[C@H]2C1` [Example 84], with over 10000 nM.
`CCC[C@@]12CC[C@@](O)(Cc3ccccc3)C[C@@H]1CCCc1cc(C(=O)Nc3cccnc3C)ccc12.CCC[C@]12CC[C@](O)(Cc3ccccc3)C[C@H]1CCCc1cc(C(=O)Nc3cccnc3C)ccc12` [Example 35] had an IC50 of 1000 to 10000 nM.
Next, `Cc1ncccc1NC(=O)c1ccc2c(c1)CN(C)C[C@H]1C[C@@H](O)CC[C@@]21Cc1ccccc1` [Example 109, (3S,4aS,11bS)-11b-benzyl-3-hydroxy-6-methyl-N-(2-methylpyridin-3-yl)-2,3,4,4a,5,6,7,11b-octahydro-1H-dibenzo[c,e]azepine-9-carboxamide]: over 10000 nM; `CC[C@@]12CC[C@](O)(CCC(F)(F)F)C[C@@H]1CCCc1cc(C(=O)Nc3cccnc3C)ccc12.CC[C@]12CC[C@@](O)(CCC(F)(F)F)C[C@H]1CCCc1cc(C(=O)Nc3cccnc3C)ccc12` [Example 133, (7aS,9S,11aR)-11a-Ethyl-9-hydroxy-9-(3,3,3-trifluoro-propyl)-6,7,7a,8,9,10,11,11a-octahydro-5H-dibenzo[a,c]cycloheptene-3-carboxylic acid (2-methyl-pyridin-3-yl)-amide; compound with (7aR,9R,11aS)-11a-ethyl-9-hydroxy-9-(3,3,3-trifluoro-propyl)-6,7,7a,8,9,10,11,11a-octahydro-5H-dibenzo[a,c]cycloheptene-3-carboxylic acid (2-methyl-pyridin-3-yl)-amide]: under 100 nM.
`CCOC[C@@]1(O)CC[C@@]2(Cc3ccccc3)c3ccc(C(=O)Nc4cccnc4C)cc3CCC[C@H]2C1` [Example 93] gave an IC50 of under 100 nM.
